Experimental data from patent publication US10047113B2, “Feruloyl-CoA:monolignol transferase” (Wisconsin Alumni Research Foundation (WARF), priority 2010, dated 2018).

What was measured:
[1] = test system: feruloyl-CoA:monolignol transferase (FMT); assay: Feruloyl-CoA:monolignol transferase (FMT) enzymatic assay, UPLC detection of product; format: biochemical, Angelica sinensis; conditions: purified recombinant enzyme; for product formation from acyl-CoA substrate: coniferyl alcohol as acceptor, FIGS. 2, 6, 7; for FMT enzyme activity with monolignol as substrate: feruloyl-CoA as acyl donor, FIGS. 2, 4, 5
Description: The feruloyl-CoA, p-coumaroyl-CoA, and caffeoyl-CoA substrates used in the FMT assay were enzymatically synthesized using the tobacco 4-coumarate-CoA-ligase (4CL) with a c-terminal HIS tag in pCRT7/CT TOPO, provided by Eran Pichersky. Following a method modified from Beuerle and Pichersky (Anal. Biochem. 302(2): 305-12 (2001)) 3.3 mg of ferulic acid, coumaric acid or caffeic acid, 2 mg coenzyme A, and 6.9 mg ATP were added to 50 mM Tris-hydrochloride pH 8 and 2.5 mM magnesium chloride in a final volume of 10 ml. The reaction was started by adding 0.25 mg 4CL, protein purified as described by the method of Beurerle and Pichershy. After a five-hour incubation at room temperature, additional 6.9 mg ATP, 2 mg coenzyme A, and 0.25 mg purified 4CL were added and the reaction was incubated overnight. The CoA esters were purified on an SPE cartridge as described in Beuerle and Pichersky (2001).
(§1) The FMT activity assay contained 100 mM MOPS pH 6.8, 1 mM dithiothreitol (DTT), 1 mM feruloyl-CoA, 1 mM coniferyl alcohol, 3.9 μg of purified FMT protein and deionized water to a volume of 50 μL. After a 30-minute incubation, 1 μL of 10 M hydrochloric acid was added to stop the reaction. Because the product synthesized in the reaction, coniferyl ferulate (CAFA), is insoluble, 50 μL of methanol was added to solubilize the CAFA. Prior to UPLC, protein and insoluble material were removed by filtering through an Amicon Ultracel 10K membrane filter (Millipore). The flow-through was analyzed using an Acquity Ultra Performance LC with an Acquity UPLC BEH C18 1.7 μm 2.1×100 mm column and the Acquity Console and Empower 2 Software, all from Waters Corporation. The solvents used in this method were solvent A, 0.1% trifluoroacetic acid, and solvent B, 100% acetonitrile. Samples were analyzed using the following gradient conditions, 13% B, for 5 minutes, 1 minute linear gradient to 42% B, held for 4 minutes, 1 minute linear gradient to 100% B, held for 1 minutes and 3 minutes at 13% B with a flow rate of 0.3 ml/minute. This method was then used to analyze a 10 μL injection of each assay reaction; standards for each of the substrates along with chemically synthesized CAFA were used to determine retention times for each compound.
Purified recombinant enzyme was assayed for FMT activity using a reaction mixture containing 2 mM coniferyl alcohol, […], 100 mM HEPES pH 7.4 and 1 mM DTT. The second most abundant BAHD acyltransferase gene when incubated with Coniferyl alcohol and feruloyl-CoA produced a compound with the retention time of authentic coniferyl ferulate (CAFA) (FIG. 2). […] The addition of methanol to 50% after stopping the enzyme with acid was required to analyze the product by UPLC. The insolubility of the product made partial purification easy as the product was separated from the substrates by centrifugation.
This partial purified product was analyzed by NMR. The identity of the product as CAFA was confirmed by ^1H-NMR (FIG. 3). The enzyme was tested with p-coumaryl alcohol (FIG. 4) and sinapyl alcohol (FIG. 5) in addition to coniferyl alcohol (FIG. 2). The enzyme is active with all three monolignols, i.e., p-coumaryl alcohol, coniferyl alcohol and sinapyl alcohol. The enzyme was tested with p-coumaroyl-CoA (FIG. 6) and caffeoyl-CoA (FIG. 7) as well as feruloyl-CoA (FIG. 2).

[2] = Solubility of the FMT reaction product; format: physicochemical
Description: as §1, with “compound. […]” for “compound.”

Structure (SMILES)	product formation from acyl-CoA substrate [1]	FMT enzyme activity with monolignol as substrate [1]	further results
CC(C)(COP(=O)(O)OP(=O)(O)OC[C@H]1O[C@@H](n2cnc3c(N)ncnc32)[C@H](O)[C@@H]1OP(=O)(O)O)[C@@H](O)C(=O)NCCC(=O)NCCSC(=O)/C=C/c1ccc(O)c(O)c1 [caffeoyl-CoA]	very little product is produced	–	–
COc1cc(/C=C/CO)ccc1O [coniferyl alcohol]	–	active	–
COc1cc(/C=C/COC(=O)/C=C/c2ccc(O)c(OC)c2)ccc1O [coniferyl ferulate]	–	–	solubility in assay reaction mixture ([2]; FMT activity assay, 100 mM MOPS pH 6.8, methanol added to solubilize): insoluble; solubility in water ([2]; product of enzyme reaction, methanol to 50% needed for UPLC): mostly insoluble in water
COc1cc(/C=C/C(=O)SCCNC(=O)CCNC(=O)[C@H](O)C(C)(C)COP(=O)(O)OP(=O)(O)OC[C@H]2O[C@@H](n3cnc4c(N)ncnc43)[C@H](O)[C@@H]2OP(=O)(O)O)ccc1O [feruloyl-CoA]	substantial product is formed	–	–

Further lines, with some results ahead:

product formation from acyl-CoA substrate [1]	FMT enzyme activity with monolignol as substrate [1]	Structure (SMILES)	further results
very little product is produced	–	CC(C)(COP(=O)(O)OP(=O)(O)OC[C@H]1O[C@@H](n2cnc3c(N)ncnc32)[C@H](O)[C@@H]1OP(=O)(O)O)[C@@H](O)C(=O)NCCC(=O)NCCSC(=O)/C=C/c1ccc(O)cc1 [p-coumaroyl-CoA]	–
–	active	OC/C=C/c1ccc(O)cc1 [p-coumaryl alcohol]	–
–	active	COc1cc(/C=C/CO)cc(OC)c1O [sinapyl alcohol]	–
